Results: ChEMBL document CHEMBL4007489, “First Bispecific Inhibitors of the Epidermal Growth Factor Receptor Kinase and the NF-κB Activity As Novel Anticancer Agents” (J Med Chem, 2017)

What was measured:
[1] = biological target: T1, Epidermal growth factor receptor (Homo sapiens, UniProt P00533); test: biochemical; assay type: cell-based
cells = assay type: cell-based; settings: Homo sapiens, U-937
Description: Inhibition of TNFalpha-stimulated NF-kappaB (unknown origin) expressed in human U937 cells incubated for 3 hrs followed by TNFalpha stimulation measured after 2.5 hrs by luciferase reporter gene assay

MDA-MB-231 = test: cells; assay type: functional; settings: Homo sapiens, MDA-MB-231, 48 h
Description: Growth inhibition of human MDA-MB-231 cells after 48 hrs by MTT assay

Homo sapiens = species on record: Homo sapiens; settings: at 10 µM;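 also: luciferase reporter readout of NF-kappaB activity in human U937 cells, compound added 3 h before TNFalpha stimulation, signal read 2.5 h after stimulation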
Description: Inhibition of TNFalpha-stimulated NF-kappaB (unknown origin) expressed in human U937 cells at 10 uM incubated for 3 hrs followed by TNFalpha stimulation measured after 2.5 hrs by luciferase reporter gene assay

[2] = biological target: T1, Epidermal growth factor receptor; settings: at 150 nM

T1 sequence (P00533 whole entry): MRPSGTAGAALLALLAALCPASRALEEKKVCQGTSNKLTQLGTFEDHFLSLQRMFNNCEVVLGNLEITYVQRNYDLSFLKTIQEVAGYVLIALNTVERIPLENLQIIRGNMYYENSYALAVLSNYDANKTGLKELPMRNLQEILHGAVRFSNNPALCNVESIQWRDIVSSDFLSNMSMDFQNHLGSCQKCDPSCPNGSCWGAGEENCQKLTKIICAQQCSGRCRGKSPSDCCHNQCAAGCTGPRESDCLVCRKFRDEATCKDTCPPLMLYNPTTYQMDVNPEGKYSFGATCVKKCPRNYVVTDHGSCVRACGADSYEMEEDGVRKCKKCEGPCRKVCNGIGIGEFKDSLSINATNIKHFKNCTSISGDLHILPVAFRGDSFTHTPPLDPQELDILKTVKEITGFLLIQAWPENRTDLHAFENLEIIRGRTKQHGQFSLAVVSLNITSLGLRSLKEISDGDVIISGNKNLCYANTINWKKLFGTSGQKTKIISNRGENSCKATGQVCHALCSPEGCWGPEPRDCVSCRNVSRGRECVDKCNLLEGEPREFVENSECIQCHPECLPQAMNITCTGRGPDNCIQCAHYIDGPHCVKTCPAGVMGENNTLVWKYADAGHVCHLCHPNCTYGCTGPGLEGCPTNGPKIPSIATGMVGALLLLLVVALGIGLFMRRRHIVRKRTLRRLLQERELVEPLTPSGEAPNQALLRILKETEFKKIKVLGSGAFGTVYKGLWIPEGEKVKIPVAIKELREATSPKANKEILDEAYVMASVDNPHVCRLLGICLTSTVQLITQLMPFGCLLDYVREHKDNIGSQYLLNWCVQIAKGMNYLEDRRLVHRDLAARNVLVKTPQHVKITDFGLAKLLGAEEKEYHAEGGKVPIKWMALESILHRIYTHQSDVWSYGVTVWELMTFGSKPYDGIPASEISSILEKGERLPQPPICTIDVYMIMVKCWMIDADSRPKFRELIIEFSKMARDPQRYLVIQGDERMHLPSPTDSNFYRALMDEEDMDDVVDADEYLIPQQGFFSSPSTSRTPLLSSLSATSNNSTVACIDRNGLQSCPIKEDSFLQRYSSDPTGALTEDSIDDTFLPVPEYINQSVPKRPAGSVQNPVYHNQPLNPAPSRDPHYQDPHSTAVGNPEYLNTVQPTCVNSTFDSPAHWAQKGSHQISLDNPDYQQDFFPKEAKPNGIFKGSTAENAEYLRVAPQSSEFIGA

IC50 [1] | IC50 (cells) | GI50 (MDA-MB-231) | inhibition [2] | Structure (SMILES) | inhibition (Homo sapiens)
35.4 nM | 2000 nM | > 30000 nM | 70.4% | S=C(Nc1ccc(Br)cc1)Nc1ccc2ncnc(Nc3cccc(Br)c3)c2c1 | 96.7%
19.3 nM | – | 10000 nM | 69% | O=C(Nc1ccc(Cl)cc1)Nc1ccc2ncnc(Nc3cccc(Br)c3)c2c1 | 50.3%
133 nM | 1900 nM | 4800 nM | 52.9% | S=C(Nc1ccc(Cl)c(Cl)c1)Nc1ccc2ncnc(Nc3cccc(Br)c3)c2c1 | 97.2%
36.8 nM | – | 19500 nM | 68.5% | Cc1cccc(Nc2ncnc3ccc(NC(=S)NCc4ccccc4)cc23)c1 | 76.4%
8.9 nM | – | > 30000 nM | 89.9% | O=C(NCc1ccccc1)Nc1ccc2ncnc(Nc3cccc(Br)c3)c2c1 | 42.6%
9.1 nM | – | > 30000 nM | 92.2% | CNC(=S)Nc1ccc2ncnc(Nc3cccc(Br)c3)c2c1 | 3%
> 150 nM | – | 17900 nM | 38.5% | S=C(NCc1ccccc1)Nc1ccc2ncnc(Nc3cccnc3)c2c1 | 7.7%
60.7 nM | 1000 nM | 1400 nM | 57.5% | FC(F)(F)c1cccc(NC(=S)Nc2ccc3ncnc(Nc4cccc(Br)c4)c3c2)c1 | 96.5%
– | 1300 nM | 400 nM | – | Fc1c(NC(=S)Nc2ccc3ncnc(Nc4cccc(Br)c4)c3c2)cccc1C(F)(F)F | 98%
> 150 nM | 1900 nM | 800 nM | 32.3% | FC(F)(F)c1cc(NC(=S)Nc2ccc3ncnc(Nc4cccc(Br)c4)c3c2)cc(C(F)(F)F)c1 | 100%
> 150 nM | 1700 nM | 1100 nM | 44% | FC(F)(F)c1cc(NC(=S)Nc2ccc3ncnc(Nc4cccc(Br)c4)c3c2)ccc1Cl | 99%
> 150 nM | 1700 nM | 12200 nM | 38.1% | FC(F)(F)c1ccc(NC(=S)Nc2ccc3ncnc(Nc4cccc(Br)c4)c3c2)cc1 | 94.8%
8.9 nM | 6400 nM | 17300 nM | 91.5% | Oc1ccc(NC(=S)Nc2ccc3ncnc(Nc4cccc(Br)c4)c3c2)cc1 | 85.3%
15.8 nM | 5200 nM | 10000 nM | 86.5% | S=C(Nc1ccccc1)Nc1ccc2ncnc(Nc3cccc(Br)c3)c2c1 | 90.7%
15.8 nM | 3500 nM | 8500 nM | 84.3% | S=C(Nc1ccc2ncnc(Nc3cccc(Br)c3)c2c1)Nc1ccccc1Cl | 95.8%
8.4 nM | – | – | – | O=C(Nc1ccc2ncnc(Nc3cccc(Br)c3)c2c1)c1ccco1 | 39.4%
146 nM | 1800 nM | 3000 nM | 50.9% | S=C(Nc1cc(Cl)cc(Cl)c1)Nc1ccc2ncnc(Nc3cccc(Br)c3)c2c1 | 99.6%
48.9 nM | 2900 nM | 12200 nM | 66% | S=C(Nc1ccc2ncnc(Nc3cccc(Br)c3)c2c1)Nc1ccc(Cl)cc1Cl | 93.1%
22 nM | – | > 30000 nM | 81.7% | O=S(=O)(Nc1nccs1)c1ccc(NC(=S)Nc2ccc3ncnc(Nc4cccc(Br)c4)c3c2)cc1 | 16.5%
10.2 nM | – | > 30000 nM | 90.4% | S=C(Nc1cccnc1)Nc1ccc2ncnc(Nc3cccc(Br)c3)c2c1 | 42.4%
9.5 nM | – | > 30000 nM | 92.3% | NS(=O)(=O)c1ccc(NC(=S)Nc2ccc3ncnc(Nc4cccc(Br)c4)c3c2)cc1 | 29%
63.6 nM | – | > 30000 nM | 60.8% | Oc1cccc(Nc2ncnc3ccc(NC(=S)NCc4ccccc4)cc23)c1 | 44.3%
28.3 nM | – | 23000 nM | 77.5% | S=C(NCc1ccc(Cl)cc1)Nc1ccc2ncnc(Nc3cccc(Br)c3)c2c1 | 78.6%
19.5 nM | 4900 nM | 8200 nM | 79.6% | S=C(Nc1ccc(Cl)cc1)Nc1ccc2ncnc(Nc3cccc(Br)c3)c2c1 | 89.5%

Second part, the compound before the results:

Structure (SMILES) | IC50 [1] | IC50 (cells) | GI50 (MDA-MB-231) | inhibition [2] | inhibition (Homo sapiens)
NS(=O)(=O)c1ccc(Nc2ncnc3ccc(NC(=S)NCc4ccccc4)cc23)cc1 | > 150 nM | – | > 30000 nM | 17.7% | 19.2%
C=CC(=O)Nc1ccc2ncnc(Nc3ccc(Br)cc3F)c2c1 | 2.1 nM | – | – | – | 73.6%
COc1ccc(C(=O)Nc2ccc3ncnc(Nc4cccc(Br)c4)c3c2)cc1 | – | – | – | – | 33.2%
Cc1cccc(Nc2ncnc3ccc(NC(=S)NCc4ccccc4)cc23)c1C | > 150 nM | – | 28700 nM | 40% | 71.5%
S=C(NCc1ccccc1)Nc1ccc2ncnc(Nc3cccc(Cl)c3)c2c1 | – | 3700 nM | 7300 nM | – | 89.7%
CC(C)c1ccc(Nc2ncnc3ccc(NC(=S)NCc4ccccc4)cc23)cc1 | > 150 nM | 4300 nM | 12800 nM | 4.2% | 95.7%
S=C(NCc1ccccc1)Nc1ccc2ncnc(Nc3ccc(Br)cc3)c2c1 | > 150 nM | 3800 nM | 15100 nM | 47.7% | 92.1%
S=C(NCc1ccccc1)Nc1ccc2ncnc(Nc3ccc(Oc4ccccc4)cc3)c2c1 | > 150 nM | – | 6800 nM | 21.9% | 73.7%
N=C(N)NS(=O)(=O)c1ccc(Nc2ncnc3ccc(NC(=S)NCc4ccccc4)cc23)cc1 | > 150 nM | – | > 30000 nM | 6.7% | 21.7%
Oc1ccc(Nc2ncnc3ccc(NC(=S)NCc4ccccc4)cc23)cc1 | > 150 nM | – | 27000 nM | 44.1% | 24.1%
S=C(NCc1ccccc1)Nc1ccc2ncnc(Nc3ccc(-c4ccccc4)cc3)c2c1 | > 150 nM | 4400 nM | 8400 nM | 14.5% | 89.1%
C=CC(=O)Nc1ccc2ncnc(Nc3cccc(C)c3F)c2c1 | 1.5 nM | – | – | – | 70%
CC(C)(C)c1ccc(Nc2ncnc3ccc(NC(=S)NCc4ccccc4)cc23)cc1 | > 150 nM | 5510 nM | 8700 nM | 0.9% | 91.9%
S=C(NCc1ccccc1)Nc1ccc2ncnc(Nc3ccccc3Br)c2c1 | > 150 nM | 6500 nM | > 30000 nM | 13.1% | 85.7%
O=S(=O)(Nc1ccccn1)c1ccc(Nc2ncnc3ccc(NC(=S)NCc4ccccc4)cc23)cc1 | > 150 nM | – | > 30000 nM | 20.9% | 6.6%
CCc1cccc(Nc2ncnc3ccc(NC(=S)NCc4ccccc4)cc23)c1 | > 150 nM | 4800 nM | 10500 nM | 41.7% | 92.5%
S=C(NCCN1CCOCC1)Nc1ccc2ncnc(Nc3cccc(Br)c3)c2c1 | 10.7 nM | – | > 30000 nM | 91.8% | 20.9%
S=C(Nc1ccc2ncnc(Nc3cccc(Br)c3)c2c1)N1CCOCC1 | 26.9 nM | – | > 30000 nM | 84% | 40.1%
